Patent publication US8545851B2, “Composition for improving inflammatory disease using ABH antigens” (SNU R&DB Foundation, priority 2009, dated 2013)

Tested on: B antigen expression in HaCaT cells harboring B antigen
Experiment: Effect of ABH antigen-constituting monosaccharides and mixtures on B antigen expression, Western blotting
Assay type: cell-based
Conditions: HaCaT cells, 0.1, 1 and 10 μM, 24 hours
Description: HaCaT cells harboring B antigen was treated respectively with FGG and FGGN mixture and FG (Fucose:Galactose=1:1, H-antigen composition) mixture which compose A, B, and H antigen, and also glucose, galactose, fucose, N-acetylgalactosamine and N-acetylglucosamine which are monosaccharides that constitute A, B, and H antigen at different concentrations of 0.1, 1, and 10 μM for 24 hours. Western blotting was performed to investigate the expression of B antigen. As a result, the expression of B antigen was increased in every case above (FIG. 9).

SMILES	expression of B antigen
O=C[C@H](O)[C@@H](O)[C@@H](O)[C@H](O)CO [galactose]	increased
CC(=O)N[C@H]1C(O)O[C@H](CO)[C@H](O)[C@@H]1O (stereo partly shown) [N-acetylgalactosamine]	increased
CC(=O)N[C@H]1C(O)O[C@H](CO)[C@@H](O)[C@@H]1O (stereo partly shown) [N-acetylglucosamine]	increased
C[C@H](O)[C@@H](O)[C@@H](O)[C@H](O)C=O [fucose]	increased
